Laboratory results published in article PMC12621043, “Un-LOK-ing a New Approach for Conformational Selective Targeting of STK10 (LOK)” (ACS Medicinal Chemistry Letters, 2025).
Where two headings read alike, the source gives them in different places.

Tests used:
STK10 [1] = biological target: T1, STK10 (Homo sapiens, UniProt O94804); assay: DSF Tm panel; type: binding; conditions: 10 μM compound
T1 construct: purchased in-house DSF kinase panel (SGC-style construct names; the trailing letter is the construct ID)

STK10 [2] = biological target: T1, STK10; assay: PhosphoSens in vitro activity assay; type: biochemical; conditions: ATP 160 μM
SLK [3] = biological target: T2, SLK (Homo sapiens, UniProt Q9H2G2); assay: PhosphoSens in vitro activity assay; type: biochemical; conditions: ATP 150 μM
SLK [4] = biological target: T2, SLK; assay: DSF Tm panel; type: binding; set-up: purchased in-house DSF kinase panel (SGC-style construct names; the trailing letter is the construct ID); conditions: 10 μM compound
SLK [5] = biological target: T2, SLK; assay: NanoBRET target engagement assay; type: cell-based; set-up: has a greater impact on the full-length protein than on the kinase domains; host or cells: HEK293T (ATCC CRL-3216); conditions: HEK293T cells
STK10 [6] = biological target: T1, STK10; conditions: Figure 1; reference not given; read-out: STK10 in vitro IC50; cited from earlier work
TIE2 = conditions: Figure 1; reference not given; read-out: TIE2 in vitro IC50; cited from earlier work
BRK = conditions: Figure 1; reference not given; read-out: BRK in vitro IC50; cited from earlier work

T1 sequence (O94804 18-317 limits assumed): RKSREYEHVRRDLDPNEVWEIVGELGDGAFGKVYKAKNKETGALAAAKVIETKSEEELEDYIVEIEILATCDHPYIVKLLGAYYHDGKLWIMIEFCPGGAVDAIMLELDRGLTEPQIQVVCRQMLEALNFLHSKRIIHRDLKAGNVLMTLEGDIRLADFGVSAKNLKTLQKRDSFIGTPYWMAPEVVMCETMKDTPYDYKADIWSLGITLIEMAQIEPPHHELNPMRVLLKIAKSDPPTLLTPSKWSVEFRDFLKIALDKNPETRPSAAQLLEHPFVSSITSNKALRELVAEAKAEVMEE

Row | ΔTm at 10 µM (STK10 [1]) | IC50 (STK10 [2]) | IC50 (SLK [3]) | ΔTm at 10 µM (SLK [4]) | EC50 (SLK [5]) | Structure (SMILES) | IC50 (STK10 [6]) | IC50 (TIE2) | IC50 (BRK)
1 | 8.3 °C | 3160 ± 670 nM | 3130 ± 930 nM | 3.7 °C | > 50000 nM | Cc1cc(F)ccc1CNC(=O)Nc1ccc2cc1OCCOCCNc1ccn3ncc-2c3n1 [compound 22] |  |  | 
2 | 9 °C | 1070 ± 110 nM | 2690 ± 510 nM | 3.8 °C | > 50000 nM | Cc1cc(C(F)(F)F)ccc1CNC(=O)Nc1ccc2cc1OCCOCCNc1ccn3ncc-2c3n1 [compound 25] |  |  | 
3 |  |  |  |  |  | COc1ccc2cc(-c3c(-c4ccncc4)nc(-c4ccc(S(C)(=O)=O)cc4C)n3C)ccc2c1 [SB-633825 (3), SB-633825] | 66 nM | 3.5 nM | 150 nM
